Reference: article PMC3520603 (Journal of biomolecular screening, 2012)
Where a name gives a salt, the structure may show the parent alone. Read-outs that look alike come from different tables or passages of the source.

How the values were obtained:
Format in all cases: binding
[1] = target: T1, RVFV nucleocapsid N protein (Rift valley fever virus, UniProt P21700); test: biochemical
[2] = target: T1, RVFV nucleocapsid N protein
[3] = target: T1, RVFV nucleocapsid N protein; test: biochemical; remark: listed apart in the source

T1 sequence (P21700 whole entry, looked up): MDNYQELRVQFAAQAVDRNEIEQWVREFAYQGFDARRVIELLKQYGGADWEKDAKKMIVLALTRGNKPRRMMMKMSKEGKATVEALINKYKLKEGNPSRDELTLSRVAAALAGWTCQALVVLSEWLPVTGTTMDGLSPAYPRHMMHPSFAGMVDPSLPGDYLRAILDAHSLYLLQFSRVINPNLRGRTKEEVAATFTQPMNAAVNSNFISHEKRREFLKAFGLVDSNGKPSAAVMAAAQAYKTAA

SMILES | Avg. Hill slope [1] | IC50 [1] | Percent Inhibition HTS [2] | Avg. Hill slope [3] | IC50 [3]
CCN(CC)CCCC(C)Nc1c2ccc(Cl)cc2nc2ccc(OC)cc12 (stereo not shown) [quinacrine dihydrochloride] | −2.99 | 162 ± 26 µM | 65.7% | – | –
CC[C@@]1(O)C(=O)OCc2c1cc1n(c2=O)Cc2cc3c(CN(C)C)c(O)ccc3nc2-1 [topotecan] | – | – | 85.9% | – | –
Cc1ccc(C(=O)Nc2ccc(S(=O)(=O)O)c3cc(S(=O)(=O)O)cc(S(=O)(=O)O)c23)cc1NC(=O)c1cccc(NC(=O)Nc2cccc(C(=O)Nc3cc(C(=O)Nc4ccc(S(=O)(=O)O)c5cc(S(=O)(=O)O)cc(S(=O)(=O)O)c45)ccc3C)c2)c1 [suramin sodium salt] | – | – | 93.3% | −2.76 | 16.3 ± 7.3 µM
Br.CN=c1nc(-c2ccccc2)n(-c2ccccc2)s1 [S 4063] | – | – | 50.3% | −1.64 | 6.7 ± 2.9 µM
